Entries after “also recorded” stand apart in the source; their conditions may differ.
Experiments:
[1] = test system: Desulfovibrio alaskensis 14563; experiment: MBEC biofilm efficacy, Log (Growth) by enumeration; assay type: cell-based; details: for Log (Growth): biofilm; for efficacy in controlling biofilm formation (in words): tested individually, standard temperature and pressure
Protocol: (§1) Strains of commonly found bacteria were used for testing the efficacy of the compounds, viz. Desulfovibrio alaskensis and Desulfovibrio vulgaris. Media for the cultures was also prepared by using a standard method. The cultures were aseptically used and incubated under anaerobic conditions. They were plated with an MBEC (minimal biofilm eradication concentration) lid, to allow for biofilm growth. […] Then the plates were rinsed, sonicated and enumerated. These enumerations were grown for 5-days for the readings.
(§2) A lyophilized Desulfovibrio alaskensis 14563, Desulfovibrio vulgaris 29579 pure cultures received from ATCC were resuspended individually in 500 ul of MB 1250. Aseptically, the content was transferred to a 5-mL tube of MB1250 medium. The cultures were incubated in an anaerobic chamber at 30° C. for 72 hrs. Subsequently, an individual stock culture with a final concentration of 25% glycerol were prepared by adding equal volumes of culture and 50% glycerol. 1 ml of the cultures were then transferred to 2-ml cryogenic vials and stored at −80° C. The purity of the stock cultures was evaluated through PCR, by amplifying the 16S rDNA region, and thus, it was verified that the original ATCC sample was a pure culture.
(§3) 48-hour cultures of ATCC Desulfovibrio alaskensis 14563 and Desulfovibrio vulgaris 29579 were prepared in an anaerobic chamber. Each culture was prepared as a 1:10 culture by taking 1 milliliter (mL) of a pure culture and inoculating 9 milliliters (mL) of fresh SRB2-LA media. Prepared cultures were incubated at 30° C. and further diluted 1:100 in SRB2-LA media after incubation. They were grown for another 24 hours then diluted 1:10. The 1:10 dilution was plated with an MBEC (minimal biofilm eradication concentration) lid, which would allow for biofilm growth.
(§4) Treatment plates were prepared by adding 180 μL of fresh phosphate buffer amended with 10% SRB2-LA media to each well. These wells were then dosed with the compounds of interest with a ppm range of 200 to 1 PPM. Edge wells were not used due to their inherent variability and evaporation of the media. Each experiment was done with at least three replicates for different treatments and non-treatment controls. After incubation of the MBEC plate, the MBEC lid was removed and added to a rinse plate containing phosphate buffer and 10% SRB2-LA. The lid was rinsed for 30 seconds then added to the treatment plate. The MBEC lids had 6 hours to 3 days of exposure time. After targeted exposure time, the plates were rinsed, sonicated, and enumerated. The rinse was done for 30 seconds in 10% SRB2-LA with phosphate buffer. Following the rinse, the lid was added to a plate with the same media and buffer mix and the plate was sonicated for 5 minutes. After five minutes, the lid was discarded, and each row of the plate was enumerated. These enumerations were grown for 5 days before being read.

[2] = test system: Desulfovibrio vulgaris 29579; experiment: MBEC biofilm efficacy, Log (Growth) by enumeration; assay type: cell-based; details: testing time 2 days
Protocol: as §1, §2, §3, §4

Compound: O=C(CN1C(=O)c2cccc3cccc(c23)C1=O)NO [Compound C1]
- Log (Growth) ([1]; testing time 6 hours, 1 PPM): 4
- Log (Growth) ([1]; testing time 6 hours, 5 PPM): 2
- Log (Growth) ([1]; testing time 6 hours, 10 PPM): 1
- Log (Growth) ([1]; testing time 6 hours, 25 PPM): 1
- Log (Growth) ([1]; testing time 6 hours, 50 PPM): 1
- Log (Growth) ([1]; testing time 18 hours, 1 PPM): 1
- Log (Growth) ([1]; testing time 18 hours, 5 PPM): 0
- Log (Growth) ([1]; testing time 18 hours, 10 PPM): 0
- Log (Growth) ([1]; testing time 18 hours, 25 PPM): 0
- Log (Growth) ([1]; testing time 18 hours, 50 PPM): 0
- Log (Growth) ([1]; testing time 2 days, 1 PPM): 0
- Log (Growth) ([1]; testing time 2 days, 2.5 PPM): 0
- Log (Growth) ([1]; testing time 2 days, 10 PPM): 0
- Log (Growth) ([1]; testing time 2 days, 15 PPM): 0
- Log (Growth) ([1]; testing time 2 days, 20 PPM): 0
- Log (Growth) ([1]; testing time 2 days, 25 PPM): 0
- Log (Growth) ([1]; testing time 2 days, 40 PPM): 0
- Log (Growth) ([1]; testing time 2 days, 50 PPM): 0
- Log (Growth) ([1]; testing time 3 days, 50 PPM): 0
- Log (Growth) ([1]; testing time 3 days, 100 PPM): 0
- Log (Growth) ([1]; testing time 3 days, 200 PPM): 0
- killing of the microorganism strain Desulfovibrio alaskensis (in words) ([1]; comparative testing against two commercial products, metabolic inhibition): completely killing
- efficacy in controlling biofilm formation (in words) [1]: significant activity in controlling biofilms; also recorded: highest efficacy
- Log (Growth) ([2]; 5 PPM): 4
- Log (Growth) ([2]; 25 PPM): 1
- Log (Growth) ([2]; 50 PPM): 1
- Log (Growth) ([2]; 100 PPM): 0
- Log (Growth) ([2]; 200 PPM): 1

Compound: O=C(CCCN1C(=O)c2cccc3cccc(c23)C1=O)NO [Compound C12]
- Log (Growth) ([1]; testing time 2 days, 5 PPM): 1
- Log (Growth) ([1]; testing time 2 days, 25 PPM): 0
- Log (Growth) ([1]; testing time 2 days, 50 PPM): 1
- Log (Growth) ([1]; testing time 2 days, 100 PPM): 0.3
- Log (Growth) ([1]; testing time 2 days, 200 PPM): 0
- efficacy in controlling biofilm formation (in words) [1]: significant activity in controlling biofilms; also recorded: exhibited efficacy

Compound: CCCCCCCC(=O)NO [Compound C16]
- Log (Growth) ([1]; testing time 2 days, 5 PPM): 5
- Log (Growth) ([1]; testing time 2 days, 25 PPM): 5
- Log (Growth) ([1]; testing time 2 days, 50 PPM): 3
- Log (Growth) ([1]; testing time 2 days, 100 PPM): 1
- Log (Growth) ([1]; testing time 2 days, 200 PPM): 0
- efficacy in controlling biofilm formation (in words) [1]: significant activity in controlling biofilms; also recorded: exhibited efficacy

From patent US20240224999A1, “METABOLIC INHIBITORS FOR CONTROLLING BIOFILM” (MC (US) 3 LLC, priority 2021, published 2024)
